Experimental data published in patent publication US9216999B2, “Substituted pyrrolo[2,3-h][1,6]naphthyridines and compositions thereof as JAK inhibitors” (priority 2011, dated 2015).

These molecules were tested against Tyk2 (Homo sapiens (Human), UniProt P29597) (assay: Enzyme assay (Assay Example^a 1), Tyk2). Settings: ATP 100 μM.
Type: biochemical

Sequence of Tyk2 (P29597 whole entry): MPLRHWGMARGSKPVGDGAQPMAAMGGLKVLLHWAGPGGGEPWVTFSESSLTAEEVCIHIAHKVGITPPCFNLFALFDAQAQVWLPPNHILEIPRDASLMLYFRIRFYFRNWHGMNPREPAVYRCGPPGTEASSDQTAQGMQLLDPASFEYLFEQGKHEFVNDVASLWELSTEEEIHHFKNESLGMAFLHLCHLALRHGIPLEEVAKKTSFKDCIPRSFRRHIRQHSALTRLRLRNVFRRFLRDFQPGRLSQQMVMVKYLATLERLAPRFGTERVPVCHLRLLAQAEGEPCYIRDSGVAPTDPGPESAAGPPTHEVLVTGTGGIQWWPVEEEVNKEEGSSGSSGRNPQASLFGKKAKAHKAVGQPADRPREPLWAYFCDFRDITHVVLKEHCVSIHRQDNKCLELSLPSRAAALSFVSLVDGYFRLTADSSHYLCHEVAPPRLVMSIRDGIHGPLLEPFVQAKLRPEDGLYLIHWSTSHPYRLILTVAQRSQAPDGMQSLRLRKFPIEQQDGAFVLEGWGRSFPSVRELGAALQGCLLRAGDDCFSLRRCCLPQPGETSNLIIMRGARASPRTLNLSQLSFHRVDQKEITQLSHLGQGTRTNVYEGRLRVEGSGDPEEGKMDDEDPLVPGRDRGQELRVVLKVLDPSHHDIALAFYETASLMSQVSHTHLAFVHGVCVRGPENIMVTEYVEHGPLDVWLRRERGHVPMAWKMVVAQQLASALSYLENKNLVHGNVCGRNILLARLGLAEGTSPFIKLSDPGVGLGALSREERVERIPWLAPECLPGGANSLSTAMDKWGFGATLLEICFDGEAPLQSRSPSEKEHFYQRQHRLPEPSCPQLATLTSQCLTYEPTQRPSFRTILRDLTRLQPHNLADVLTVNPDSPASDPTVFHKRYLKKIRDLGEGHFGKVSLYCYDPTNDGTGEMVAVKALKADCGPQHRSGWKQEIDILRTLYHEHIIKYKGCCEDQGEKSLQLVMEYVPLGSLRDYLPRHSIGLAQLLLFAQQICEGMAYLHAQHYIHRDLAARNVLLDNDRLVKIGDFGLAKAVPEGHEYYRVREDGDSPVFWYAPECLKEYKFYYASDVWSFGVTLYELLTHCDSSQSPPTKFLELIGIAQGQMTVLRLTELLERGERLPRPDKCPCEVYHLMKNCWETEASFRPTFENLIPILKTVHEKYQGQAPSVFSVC

| IC50 [µM] | SMILES |
| --- | --- |
| 0.05 | O[C@H](CNC[C@H]1CC[C@H](c2nnn3cnc4[nH]ccc4c23)CC1)c1ccccc1 [compound 277, (S)-2-({[trans-4-(7H-pyrrolo[3,2-e][1,2,3]triazolo[1,5-c]pyrimidin-1-yl)cyclohexyl]methyl}amino)-1-phenylethanol] |

Same assay, conditions: ATP 100 μM; Table^a 154

| IC50 [µM] | SMILES |
| --- | --- |
| 0.35 | O[C@@H](CN[C@H]1CC[C@H](c2nnn3cnc4[nH]ccc4c23)CC1)c1ccccc1 [204b, (R)-2-{[trans-4-(7H-pyrrolo[3,2-e][1,2,3]triazolo[1,5-c]pyrimidin-1-yl)cyclohexyl]amino)-1-phenylethanol] |

These molecules were tested against JAK3 (Homo sapiens (Human), UniProt P52333) (assay: Enzyme assay (Assay Example^a 1), JAK3). Settings: not given.
Sequence of JAK3 (P52333 whole entry): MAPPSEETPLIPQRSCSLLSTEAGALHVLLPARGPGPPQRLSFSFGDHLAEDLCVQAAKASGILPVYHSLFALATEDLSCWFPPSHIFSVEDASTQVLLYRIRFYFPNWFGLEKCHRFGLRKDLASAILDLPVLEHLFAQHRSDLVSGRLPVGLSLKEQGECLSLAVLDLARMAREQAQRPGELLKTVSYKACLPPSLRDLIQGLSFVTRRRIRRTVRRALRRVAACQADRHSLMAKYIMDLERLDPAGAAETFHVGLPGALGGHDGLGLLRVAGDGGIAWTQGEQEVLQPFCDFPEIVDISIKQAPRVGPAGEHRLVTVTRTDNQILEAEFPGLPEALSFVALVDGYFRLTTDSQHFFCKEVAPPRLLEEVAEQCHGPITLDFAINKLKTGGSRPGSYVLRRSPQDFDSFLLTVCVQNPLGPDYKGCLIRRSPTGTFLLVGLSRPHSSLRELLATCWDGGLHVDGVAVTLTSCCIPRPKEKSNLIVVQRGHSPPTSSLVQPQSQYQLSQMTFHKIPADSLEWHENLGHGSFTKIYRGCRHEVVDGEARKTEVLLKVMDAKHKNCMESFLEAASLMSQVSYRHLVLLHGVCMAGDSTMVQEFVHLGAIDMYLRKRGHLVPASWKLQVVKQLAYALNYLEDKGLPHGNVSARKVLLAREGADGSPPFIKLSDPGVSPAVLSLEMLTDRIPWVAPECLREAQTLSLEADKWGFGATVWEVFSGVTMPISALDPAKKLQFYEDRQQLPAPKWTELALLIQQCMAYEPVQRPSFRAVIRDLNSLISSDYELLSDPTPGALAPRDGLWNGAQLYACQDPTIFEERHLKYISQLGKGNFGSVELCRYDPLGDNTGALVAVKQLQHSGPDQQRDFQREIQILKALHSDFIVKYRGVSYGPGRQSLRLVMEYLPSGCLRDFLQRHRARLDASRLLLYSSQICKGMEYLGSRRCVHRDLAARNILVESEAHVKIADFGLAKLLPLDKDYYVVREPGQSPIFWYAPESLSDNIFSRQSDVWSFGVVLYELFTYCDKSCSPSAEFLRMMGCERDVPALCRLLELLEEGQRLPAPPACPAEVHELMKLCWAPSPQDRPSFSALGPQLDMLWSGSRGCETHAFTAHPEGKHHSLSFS
Type: biochemical

| IC50 [µM] | SMILES |
| --- | --- |
| 0.041 | FC(F)(F)c1ccc(CN2CCC(c3nnn4cnc5[nH]ccc5c34)CC2)cn1 [compound 52] |
| 0.44 | FC(F)(F)CN1CCC(c2nnn3cnc4[nH]ccc4c23)CC1 [compound 25] |
| > 1 | Cc1cc(C#N)ccc1NC[C@H]1CC[C@H](c2nnn3cnc4[nH]ccc4c23)CC1 [compound 103] |
| 0.071 | Clc1ccc(CN2CCC(c3nnn4cnc5[nH]ccc5c34)CC2)cc1 [compound 54] |
| 0.46 | N#Cc1ccc(NC2CCC(c3nnn4cnc5[nH]ccc5c34)CC2)cc1 (stereo not shown) [compound 121] |
| 0.66 | N#Cc1ccc(N[C@H]2CC[C@H](c3nnn4cnc5[nH]ccc5c34)CC2)cc1 [134b] |
| 0.055 | CC(=O)SC[C@H]1CC[C@H](c2nnn3cnc4[nH]ccc4c23)CC1 [compound 71] |
| 0.28 | O[C@H]1CC[C@@H](c2nnn3cnc4[nH]ccc4c23)CC1 [compound 83] |
| 1 | N#Cc1ccc(N[C@H]2CC[C@@H](c3nnn4cnc5[nH]ccc5c34)CC2)cc1 [134a] |

| SMILES | IC50 [µM] |
| --- | --- |
| O[C@H]1CC[C@H](c2nnn3cnc4[nH]ccc4c23)CC1 [compound 81] | 0.64 |

Same assay, conditions: ATP 100 μM

| SMILES | IC50 [µM] |
| --- | --- |
| c1ccc2sc(CN3CCC(c4nnn5cnc6[nH]ccc6c45)CC3)nc2c1 [compound 232, 2-{[4-(7H-pyrrolo[3,2-e][1,2,3]triazolo[1,5-c]pyrimidin-1-yl)piperidin-1-yl]methyl}benzo[d]thiazole] | > 1 |

Same assay, conditions: ATP 100 μM; Table^a 154

| IC50 [µM] | SMILES |
| --- | --- |
| 0.032 | c1cc2c(ncn3nnc(C4CCN(Cc5csnn5)CC4)c23)[nH]1 [compound 152] |
| > 1 | N#Cc1ccc(NC[C@H]2CC[C@H](c3nnn4cnc5[nH]ccc5c34)CC2)cc1 [compound 92] |
| 0.62 | Fc1ccc(CN2CCC(c3nnn4cnc5[nH]ccc5c34)CC2)cc1C(F)(F)F [compound 154] |
| 0.015 | Brc1ncc(CN2CCC(c3nnn4cnc5[nH]ccc5c34)CC2)s1 [compound 153] |
| 0.048 | CC(=O)OC[C@H]1CC[C@H](c2nnn3cnc4[nH]ccc4c23)CC1 [compound 72] |
| > 1 | Cc1cc(NC(=O)N2CCC(c3nnn4cnc5[nH]ccc5c34)CC2)sn1 [compound 31] |
| > 1 | c1cc2c(ncn3nnc(C4CCC(NCCN5CCOCC5)CC4)c23)[nH]1 (stereo not shown) [compound 126] |
| > 1 | O=C(OCc1ccccc1)N1CCC(c2[nH]c(=S)n3cnc4[nH]ccc4c23)CC1 [compound 85] |
| 0.26 | N#Cc1cccc(CN2CCC(c3nnn4cnc5[nH]ccc5c34)CC2)c1 [compound 35] |
| 0.53 | FC(F)(F)c1cccc(CN2CCC(c3nnn4cnc5[nH]ccc5c34)CC2)c1 [compound 39] |
| 0.31 | c1coc(CN2CCC(c3nnn4cnc5[nH]ccc5c34)CC2)c1 [compound 146] |
| 0.63 | c1cc(CN2CCC(c3nnn4cnc5[nH]ccc5c34)CC2)[nH]n1 [compound 151] |
| 0.48 | O=C(Nc1nncs1)N1CCC(c2nnn3cnc4[nH]ccc4c23)CC1 [compound 30] |
| 0.032 | ClC[C@H]1CC[C@H](c2nnn3cnc4[nH]ccc4c23)CC1 [compound 75] |
| 0.31 | N#Cc1ccc(CNC[C@H]2CC[C@H](c3nnn4cnc5[nH]ccc5c34)CC2)cc1 [compound 93] |
| > 1 | c1cc2c(ncn3nnc(C4CCC(N5CCOCC5)CC4)c23)[nH]1 (stereo not shown) [compound 124] |
| 0.36 | Fc1ccccc1CN1CCC(c2nnn3cnc4[nH]ccc4c23)CC1 [compound 142] |
| 0.64 | c1cc2c(ncn3nnc([C@H]4CC[C@H](CN5CCOCC5)CC4)c23)[nH]1 [compound 91] |
